The values below are quoted from earlier work in article doi:10.1101/2025.05.01.651722v1 (bioRxiv, 2025).

No end group written: not given here.

The conditions of this series: solubility maintained by hydrophilic arginine tail.

On to H-RLTRKRGLKLAGGGGGRRRRRRRRR [ApoB^11], for which the “hydrophobicity of the peptide” value is recorded as “highly hydrophobic”.
